Measured values from patent publication US12391646B2, “Using adiponectin receptor agonists to treat inflammation and bone diseases in diabetes” (Trustees of Tufts College, priority 2020, dated 2025).

How the values were obtained:
[1] = system: DIO mice with experimental periodontitis; test: Experimental periodontitis in DIO mice; assay type: in vivo; details: for numbers of osteoclasts on alveolar bone (TRAP stain): compared to vehicle-treated DIO mice; for IL-6 and CCL-2 gene expression in periodontal epithelium: compared to vehicle-treated group; for bodyweight / decrease in fasting blood glucose level: two weeks oral gavage, AdipoRon 50 mg/kg, AdipoAI 25 mg/kg, vs vehicle; for average alveolar bone loss at 6 sites (CEJ-ABC distance): two weeks, vehicle 372.3±27.3 μm
Experimental: FIG. 19 AdipoRon and AdipoAI attenuate experimental periodontitis in diet-induced obesity (DIO). (A) Bodyweight of vehicle, AdipoRon and AdipoAI-treated DIO mice with experimental periodontitis. (B) Fasting blood glucose in DIO mice with experimental periodontitis treated with vehicle, AdipoRon and AdipoAI. (C) A representative 3-dimensional model of alveolar bone in DIO mice with experimental periodontitis. […] The distance from ABC to CEJ in four groups is shown in (D) (n≥7). (E) Representative TRAP-stained alveolar bone in DIO mice with experimental periodontitis. Black arrow, osteoclast (scale bar=200 μm). The number of osteoclasts attached to the alveolar bone surface was calculated (F). (G) Relative expression of IL-6 and CCL2 genes in gingival tissue from DIO mice with experimental periodontitis was analyzed using real-time PCR. The animals were treated AdipoRon and AdipoAI or vehicle alone (n≥5).
DIO (C57BL/6J background, Jax #380050) were purchased from the Jackson Laboratory (Bar Harbor, ME, http://www.jax.org/). After acclimatization, animals were fed a high-fat diet (containing 60% kcal from fat, Jackson Laboratory) from 6 weeks of age onwards. Experimental periodontitis was induced in 20-week-old mice by 5-0 silk suture as described previously 26. Briefly, animals were anesthetized using ketamine/xylazine and buprenorphine and the sutures were placed around the maxillary second molar and tied on the palatal side for 2 weeks. The ethical approval of this study was provided by the IACUC of UCSD. The care and use of laboratory animals and Animal Research was performed in accordance with NIH guidelines.
AdipoRon (50 mg/kg body weight)^23, 24 and the AdipoAI (25 mg/kg body weight)^25 were administered by oral gavage concurrently with establishment of experimental periodontitis for 2 weeks.
Gingival tissues from the palatal side were sampled and immediately stored in liquid nitrogen until further analysis. The skulls were scanned by the Bruker Skyscan micro-CT system (Bruker, Kontich, Belgium). Alveolar bone loss, defined as the distance between the cementoenamel junction (CEJ) to the alveolar bone crest (ABC), was measured at six sites (mesio-buccal, mid-buccal, disto-buccal, mesio-palatal, mid-palatal, and disto-palatal) using Ctan software (http://bruker-microct.com/products/downloads.htm) as previously reported^26. Periodontal hard tissue sections were stained with Acid Phosphatase, Leukocyte (TRAP) Kit (Sigma, St. Louis, MO, USA) according to the manufacturer's instructions.
Total RNA was isolated from cell cultures and gingival soft tissues using TriZol reagent (Life Technologies, Carlsbad, CA, USA) according to the manufacturer's instructions^24. Reverse transcription was performed using the PrimeScript RT Master Mix (Takara Bio, Otsu, Japan) and real-time-qPCR analyses were performed using SYBR-Green Real-Time PCR Master Mix (Takara Bio, Otsu, Japan) as described earlier^27.

[2] = system: LPS-stimulated RAW 264.7 macrophages; test: qPCR of cytokine mRNA in LPS-stimulated RAW 264.7 macrophages; assay type: cell-based; details: for expression of anti-inflammatory cytokine IL-10: LPS-induced macrophages; for IL-10 expression, longer treatments / IL-10 mRNA expression, treatment for 18 h or less: macrophages; for IL-10 expression, longer treatments: longer than 18 h; for IL-10 mRNA expression, treatment for 18 h or less: no LPS
Raw264.7 cells = test: CCK-8 cytotoxicity assay, 24 hours; assay type: cell-based; details: at 40 μM or lower concentrations
Experimental: (§1) FIG. 1 Characterization of anti-inflammatory properties of APR-like compounds. (a) Raw264.7 cells were pretreated with APR (20 μM) or new compounds 1 to 10 (5 μM) for 24 h followed by incubation with LPS (100 ng/mL) for an additional 6 h. IL-6 and IL-1β mRNA expression levels were evaluated by qPCR and normalized with GAPDH mRNA level. (b) Raw264.7 cells were pretreated with different doses of AdipoAI for 24 h followed by incubation with LPS (100 ng/mL) for additional 6 h to evaluate dose-dependency of AdipoAI in inhibiting IL-6 and IL-1β mRNA expression levels by qRT-PCR and normalized with GAPDH mRNA level. (c) Evaluation of cytotoxicity of APR, AdipoAI and compound 5 by CCK8 assay in Raw264.7 cells treated for 24 hours. (d) BMMs were pretreated with APR (20 μM), AdipoAI (5 μM) or compound 5 (5 μM) for 24 h followed by incubation with LPS (100 ng/ml) for additional 6 h for the measurement of IL-6 and IL-1β mRNA expression levels by qRT-PCR and normalized with GAPDH mRNA level. Data were expressed as the mean±SEM at five biological independent experiments. One-way ANOVA test for multiple-group comparisons, *P<0.05, significant differences between each indicated group.
Raw264.7 cells were seeded at 2×10^3 cells/well in 96-well plates for 16 hours and then serum-starved for 6 hours. Cells were maintained in DMEM in the presence of different concentrations of APR (AdipoGen Life Sciences, San Diego, CA, USA) and compounds for 24 hours. […] The detailed group assignment is shown in the individual figure legends.

[3] = system: LPS-stimulated RAW 264.7 macrophages; test: qPCR of cytokine mRNA in LPS-stimulated RAW 264.7 macrophages; assay type: cell-based; details: for expression of proinflammatory cytokines such as IL-6 and IL-1B: LPS-induced macrophages
Experimental: as §1
RAW 264.7 macrophage cell line was purchased from ATCC (Manassas, VA, USA) and maintained in DMEM (Gibco, Life Technologies, Carlsbad, CA, USA) supplemented with 10% (v.v-1) FBS (Gibco, Life Technologies) and 1% (v.v-1) penicillin/streptomycin (Gibco, Life Technologies). The cells were routinely cultured in an incubator at 37° C. in a humidified atmosphere of 5% CO2.
Total RNA of cells was extracted using Quick-RNA Miniprep Kit (ZYMO Research, Irvine, CA, USA) and total RNA from mouse tissues was prepared with TriZol reagent (Life Technologies) according to the manufacturer's instructions followed by qRT-PCR assays as described previously (L. Zhang et al., 2014). 1 μg of total RNA was used for reverse transcription using the M-MLV Reverse Transcriptase (Thermo Scientific, Waltham, MA, USA) according to the manufacturer's protocol using PowerUp SYBR Green Master Mix (Thermo Scientific) on a Bio-Rad iQ5 thermal cycler (Bio-Rad Laboratories, Hercules, CA, USA). Differences in expression were evaluated by the comparative cycle threshold method using GAPDH or β-actin as a control. The primer sequences used for the qRT-PCR experiments are listed in supplemental Table 1.
Macrophages were seeded at a density of 5×10^5 cells/well in 12-well plates. After overnight incubation, the cells were transfected for 24 h with siRNAs targeting specific genes or scrambled control siRNAs using HiPerFect Transfection Reagent (Qiagen, Hilden, Germany) according to the manufacturer's guidelines. Gene silencing efficiency was monitored by qPCR or Western blot analysis. The siRNA duplexes used in this study were chemically synthesized by Thermo Scientific.

SMILES | numbers of osteoclasts on alveolar bone (TRAP stain) [1] | IL-6 and CCL-2 gene expression in periodontal epithelium [1] | bodyweight [1] | decrease in fasting blood glucose level [1] [%] | average alveolar bone loss at 6 sites (CEJ-ABC distance) [1] [μm] | TNF-α expression levels ([2]; LPS-induced Raw264.7 macrophage, BMMs or PEMs (data not shown)) | expression of anti-inflammatory cytokine IL-10 [2] | IL-10 expression, longer treatments [2] | IL-10 mRNA expression, treatment for 18 h or less [2] | cytotoxic effects (CCK-8) (Raw264.7 cells) | expression of proinflammatory cytokines such as IL-6 and IL-1B [3] | dependence of inhibition of proinflammatory cytokine mRNA on AdipoRs and APPLs (siRNA) ([3]; Raw264.7 cells transfected with siRNA) | inhibition of IL-6 and IL1-β mRNA expression ([3]; compounds at 5 μM vs APR at 20 μM, 24 h pretreatment, then LPS 100 ng/mL 6 h) | anti-inflammatory efficacy relative to APR ([3]; in macrophages, estimated) | LPS-stimulated IL-6 and IL-1β mRNA expression, dose-dependency ([3]; increasing concentrations, 24 h, then LPS 100 ng/mL 6 h)
COc1ccc(CN2CCC(NC(=O)COc3ccc(C(=O)c4ccc(Cl)cc4)cc3)CC2)cc1 [Compound 3] | significantly decreased numbers of osteoclasts | significantly attenuated the IL-6 and CCL-2 gene expression | decreased significantly | 75.3 | 328.5±19.9 | did not inhibit TNF-α expression levels | downregulated expression of the anti-inflammatory cytokine IL-10 | decreased IL-10 expression | increased IL-10 mRNA expression | neither of the 3 small molecules mediated significant cytotoxic effects | inhibited expression of proinflammatory cytokines such as IL-6 and IL-1B | prevented by AdipoR1 and APPL1 suppression, but not AdipoR2 or APPL2 | stronger inhibitory effects than APR | about 8 times | decreased LPS-stimulated IL-6 and IL-1β mRNA expression in a dose-dependent fashion
O=C(COc1ccc(C(=O)c2ccccc2)cc1)NC1CCN(Cc2ccccc2)CC1 [AdipoRon, reference compound] | significantly decreased numbers of osteoclasts | significantly attenuated the IL-6 and CCL-2 gene expression | decreased significantly | 73.3 | 344.5±22.2 |  | downregulated expression of the anti-inflammatory cytokine IL-10 | decreased IL-10 expression | increased IL-10 mRNA expression | neither of the 3 small molecules mediated significant cytotoxic effects | inhibited expression of proinflammatory cytokines such as IL-6 and IL-1B |  |  |  | 
